17 compounds from patent US20240374738A1, “BIFUNCTIONAL COMPOUND CAPABLE OF DEGRADING RECEPTOR TYROSINE KINASE AND APPLICATION THEREOF” (TAIBIDI PHARMACEUTICAL TECHNOLOGY (SHIJIAZHUANG) CO., LTD., priority 2023, published 2024) can be followed below.

What all share (assay type): cell-based
The test system of one test is MKN45. Put plainly: Growth inhibition of gastric cancer cells MKN45 (CCK-8). The following applies: Homo sapiens, MKN-45, half inhibitory concentration, 72 hours. As to the method: (§1) Inoculate gastric cancer cells (SNU5 or MKN45) into a 96 well plate at a concentration of […], with 100 μl added to each well. Incubate for 30 minutes. Observe the cell status under a microscope. Prepare compounds, weigh a certain amount of the series compounds or reference drug cabozantinib of this patent, first prepare a high concentration mother liquor with pure DMSO, and use gradient dilution method to prepare a concentration of 200 μM, 60 μM, 20 μM, 6 μM, 2 μM, 600 nM, 200 nM, 0 nM drug solution, shake to make it fully mixed. The control group was prepared with cabozantinib using the same solvent and method.
(§2) After preparation, add 1 μl of drug solution to each well of the 96 well plate, and then add 100 μl of culture medium. Repeat each dose three times. Gently shake to allow the cells and medication to come into full contact and incubate in the incubator for 72 hours. 72 hours later, remove and color with CCK-8 reagent kit. Add 20 μl of CCK-8 reagent to each well, gently shake well, and incubate in the incubator for 1 hour. After 1 hour, remove and measure the absorbance of each well using an enzyme-linked immunosorbent assay (ELISA) reader at a wavelength of 450 nm.
(§3) According to the formula: Cell growth inhibition rate=[1−(absorbance of experimental group absorbance of culture medium control group)/(absorbance of blank control group−absorbance of culture medium control group)]×100%. It can be concluded that the compound has the ability to inhibit the growth of gastric cancer cells at the current dose and time.
(§4) Draw a graph based on the gradient of concentration and use GraphPad Prism 9 software (GraphPad Software, La Jolla, CA) to calculate the maximum inhibitory concentration (IC50) at 50%.
(§5) Referring to steps 1 and 2 of this embodiment, the inhibitory effect of the compound of the present invention on the growth of cancer cells and the degradation effect of target proteins were measured, and the following results were obtained (see Table 2 below).
(§6) The growth inhibitory effects of the compound of the present invention on tumor cell lines MKN45 and SNU5 were measured. The activity is expressed as half inhibitory concentration (C50). The results are shown in Table 2 below; When the half inhibitory concentration is less than or equal to 100 nM, the compound activity is labeled as “++++”; When the half inhibitory concentration is greater than 100 nM and less than 500 nM, the compound activity is labeled as […] and less than 1000 nM, the compound activity is labeled as “++”; When the half inhibitory concentration is greater than 1000 nM and less than 3000 nM, the compound activity is marked as “+”; When the half inhibitory concentration is greater than 3000 nM, the compound activity is marked as […]

For a further test, the system named is SNU5. Nature of the test: Growth inhibition of gastric cancer cells SNU5 (CCK-8). The following applies: Homo sapiens, SNU-5, half inhibitory concentration, 72 hours. The method, then:
as §1, §2, §3, §4, §5, §6

For the next test, the target named is DDR1 (Homo sapiens, UniProt Q08345). Put plainly: Degradation of DDR1 in tumor cell MKN45 (Western blot). Also noted: The degradation activity of the compounds against DDR1 in the MKN45 cell line; endogenous in cells; host or cells: MKN45. The following applies: MKN-45, maximum degradation percentage, MKN45 cells, 24 hours. As to the method:
Western blot experiment: Take gastric cancer cells (MKN45) and inoculate them into a 6-well plate at a concentration of […], adding 2 ml to each well and incubating for 24 hours.
The next day, observe the cells under a microscope to confirm their status. Prepare compounds, weigh a certain amount of the series compounds or reference drug cabozantinib from this patent, first prepare a high concentration mother liquor with pure DMSO, and use gradient dilution method to prepare compound concentrations of 2 mM, 200 μM, 100 μM, 20 μM, 2 μM, 200 nM, and 0 nM. The final concentration of DMSO is 0.5%. Shake to thoroughly mix. Add 10 μl of solution to each well. After incubation for 24 hours, remove the cells and use a pipette to aspirate the suspended cells into a 1.5 ml centrifuge tube. Centrifuge at 5000 rpm for 10 minutes to precipitate the cells. Carefully remove the cell precipitate from the culture medium, add 1 ml of PBS and shake slightly. After repeated cleaning for 3 times, dry the residue. Add 150 μl of RIPA lysate pre mixed with 1% PMSF, blow to allow the lysate to fully contact the cells, and incubate on ice for 10 minutes. Centrifuge at 12000 rpm for 10 minutes, extract the supernatant, use the BCA protein quantification kit to determine and homogenize the sample loading.
Mix BCA-A in a 50:1 ratio Prepare working solution with B solution, dilute the sample by 5 times, then pipette 20 μl onto a 96 well ELISA plate. Add 200 μl of pre mixed BCA working solution and incubate at 37° C. for 20 minutes. Measure the A562 nm absorbance value using an ELISA reader and substitute it into the protein standard curve formula to obtain the sample concentration. After calculating the required volume for loading […] of sample, divide the sample into 1.5 ml centrifuge tubes. Add 10 μl of sample buffer to each tube and mix well. Heat in a 95° C. metal bath for 5 minutes to denature the protein.
Take 4-20% gradient pre adhesive and fix it on the adhesive rack. Add electrophoresis solution to the slot and remove the comb, Marker and protein samples were loaded, and after 30 minutes of electrophoresis at 80V, the voltage was adjusted to 120V for electrophoresis, The marker band stops electrophoresis at the forefront of the gel. Take out the adhesive block and cut it to the appropriate size, The PVDF membrane was cut and activated in methanol, and after activation, the PVDF membrane was equilibrated in a membrane transfer equilibrium solution for 1 minute. Using sponge pads The sequence of PVDF film, adhesive, and sponge pad is placed in the splint and placed in the eBlot equipment for rapid wet rotation. Remove the membrane and seal it in 5% skim milk powder dissolved in 1×TBST for 1 hour. Cut the membrane according to the molecular weight of the target protein and internal reference protein, and place it in primary antibody diluted with 1×TBST. Shake overnight at 4° C.
The next day, transfer the band to 1×TBST for 3 washes, then add a specific dilution of the secondary antibody and shake it for 1.5 hours. Transfer the band again to 1×TBST for 3 washes, prepare ECL color solution, place the membrane in the imaging system, cover the surface with ECL color solution, and take photos of the membrane using the imaging system.
Using the SHST analysis system to analyze the results, measure the grayscale values of each band of the target protein and internal reference protein. Normalize the grayscale values of the target protein/corresponding lane GAPDH grayscale values, and perform quantitative analysis according to the protein amount=experimental group grayscale value/blank control group grayscale value.
The activity of the compound of the present invention in degrading DDR in tumor cell line MKN45 was measured. […]
A general note: Immunoblotting shows a protein as a band on a membrane.

Chain of DDR1 (Q08345 19-913): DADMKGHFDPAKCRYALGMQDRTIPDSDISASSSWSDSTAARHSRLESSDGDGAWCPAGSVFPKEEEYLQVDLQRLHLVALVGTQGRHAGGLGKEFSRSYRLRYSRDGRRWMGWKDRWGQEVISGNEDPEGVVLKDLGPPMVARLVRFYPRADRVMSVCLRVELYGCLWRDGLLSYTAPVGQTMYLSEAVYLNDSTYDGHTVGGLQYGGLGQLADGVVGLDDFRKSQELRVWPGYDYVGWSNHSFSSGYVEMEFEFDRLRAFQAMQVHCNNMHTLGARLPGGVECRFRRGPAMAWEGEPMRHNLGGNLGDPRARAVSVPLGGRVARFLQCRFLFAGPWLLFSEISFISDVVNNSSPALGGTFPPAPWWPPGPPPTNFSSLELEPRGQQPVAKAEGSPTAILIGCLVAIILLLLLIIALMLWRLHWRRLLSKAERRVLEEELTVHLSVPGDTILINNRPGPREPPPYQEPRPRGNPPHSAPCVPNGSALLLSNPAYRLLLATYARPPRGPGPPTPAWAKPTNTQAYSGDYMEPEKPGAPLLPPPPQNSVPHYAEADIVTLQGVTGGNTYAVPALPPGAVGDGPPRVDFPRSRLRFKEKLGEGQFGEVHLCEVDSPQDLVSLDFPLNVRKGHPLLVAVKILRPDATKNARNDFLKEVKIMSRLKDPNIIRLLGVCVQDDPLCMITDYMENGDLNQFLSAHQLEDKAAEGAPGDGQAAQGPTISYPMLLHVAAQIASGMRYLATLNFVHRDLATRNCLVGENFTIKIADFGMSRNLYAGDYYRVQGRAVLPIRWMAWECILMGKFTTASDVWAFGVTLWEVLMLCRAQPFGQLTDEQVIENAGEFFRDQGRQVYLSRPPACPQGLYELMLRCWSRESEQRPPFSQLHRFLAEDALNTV

What is called IC50 is the concentration at which inhibition is half-maximal. A high value points to lower potency. The term Dmax denotes the largest share of the target that was removed. A higher Dmax goes with deep degradation. Turning to `COc1cc2c(Oc3ccc(NC(=O)C4(C(=O)Nc5ccc(F)cc5)CC4)cc3)ccnc2cc1COCCN1CCC(OCCC(=O)N[C@H](C(=O)N2C[C@H](O)C[C@H]2C(=O)NCc2ccc(-c3scnc3C)cc2)C(C)(C)C)CC1` [TPD5305], the half-inhibitory concentration (IC50) in the test with MKN45 and in the test with SNU5 was 100 to 500 nM in each case. Also, at DDR1, the Dmax lay within 65 to 75%.
Regarding `COc1cc2c(Oc3ccc(NC(=O)C4(C(=O)Nc5ccc(F)cc5)CC4)cc3)ccnc2cc1COCCN1CCC(CCNc2cccc3c2C(=O)N(C2CCC(=O)NC2=O)C3=O)CC1` (stereo not drawn) [TPD5313], the IC50 in the test on MKN45 and with SNU5 was 100 to 500 nM each time. The same compound gave a Dmax on DDR1 of 65 to 75%.
For `COc1cc2c(Oc3ccc(NC(=O)C4(C(=O)Nc5ccc(F)cc5)CC4)cc3)ccnc2cc1COCCN1CCC(OCCCNc2ccc3c(c2)C(=O)N(C2CCC(=O)NC2=O)C3=O)CC1` (stereo not drawn) [TPD5315], the half-inhibitory concentration (IC50) with MKN45 and in the test on SNU5 was 100 to 500 nM each time. In addition, on DDR1, the greatest degradation seen (Dmax) is > 85%.
As to `COc1cc2c(Oc3ccc(NC(=O)C4(C(=O)Nc5ccc(F)cc5)CC4)cc3)ccnc2cc1COCCN1CCN(CCNc2cccc3c2C(=O)N(C2CCC(=O)NC2=O)C3=O)CC1` (stereo not drawn) [TPD5316], the half-inhibitory concentration (IC50) in the test on MKN45 and with SNU5 was 500 to 1000 nM each time. The same compound showed a maximal degradation (Dmax) at DDR1 of 75 to 85%.
Take `COc1cc2c(Oc3ccc(NC(=O)C4(C(=O)Nc5ccc(F)cc5)CC4)cc3)ccnc2cc1COCCN1CCN(C(=O)CNc2cccc3c2C(=O)N(C2CCC(=O)NC2=O)C3=O)CC1` (stereo not drawn) [TPD5317]: the 50% inhibitory concentration (IC50) in the test with MKN45 and in the test on SNU5 was 100 to 500 nM in each case. The compound further showed a Dmax on DDR1 of 65 to 75%.
As for `COc1cc2c(Oc3ccc(NC(=O)C4(C(=O)Nc5ccc(F)cc5)CC4)cc3)ccnc2cc1N1CCC(CN2CCC(C(=O)N[C@H](C(=O)N3C[C@H](O)C[C@H]3C(=O)NCc3ccc(-c4scnc4C)cc3)C(C)(C)C)CC2)CC1` [TPD5402b], the concentration for half-maximal inhibition (IC50) in the test on MKN45 and in the test with SNU5 was ≤ 100 nM in each case. The compound also came in with a Dmax on DDR1 of 65 to 75%.
In the case of `COc1cc2c(Oc3ccc(NC(=O)C4(C(=O)Nc5ccc(F)cc5)CC4)cc3)ccnc2cc1N1CCC(CN2CCC(OCC(=O)N[C@H](C(=O)N3C[C@H](O)C[C@H]3C(=O)NCc3ccc(-c4scnc4C)cc3)C(C)(C)C)CC2)CC1` [TPD5407], the 50% inhibitory concentration (IC50) in the test on MKN45 is 100 to 500 nM; with SNU5 it was 500 to 1000 nM. The compound also showed a Dmax on DDR1 of 75 to 85%.
Taken in the same sequence, the figures for `COc1cc2c(Oc3ccc(NC(=O)C4(C(=O)Nc5ccc(F)cc5)CC4)cc3)ccnc2cc1N1CCC(C(=O)N[C@H](C(=O)N2C[C@H](O)C[C@H]2C(=O)NCc2ccc(-c3scnc3C)cc2)C(C)(C)C)CC1` [TPD5409] were 100 to 500 nM, 100 to 500 nM and 65 to 75%.
The matching figures for `COc1cc2c(Oc3ccc(NC(=O)C4(C(=O)Nc5ccc(F)cc5)CC4)cc3)ccnc2cc1N1CCC(CC(=O)N[C@H](C(=O)N2C[C@H](O)C[C@H]2C(=O)NCc2ccc(-c3scnc3C)cc2)C(C)(C)C)CC1` [TPD5410]: ≤ 100 nM, ≤ 100 nM and 65 to 75%.
On to `COc1cc2c(Oc3ccc(NC(=O)C4(C(=O)Nc5ccc(F)cc5)CC4)cc3)ccnc2cc1N1CCC(OCC(=O)N[C@H](C(=O)N2C[C@H](O)C[C@H]2C(=O)NCc2ccc(-c3scnc3C)cc2)C(C)(C)C)CC1` [TPD5411], for which the IC50 with MKN45 and with SNU5 was 100 to 500 nM throughout. Also, on DDR1, the greatest degradation seen (Dmax) lay in the range of 75 to 85%.
As for `COc1cc2c(Oc3ccc(NC(=O)C4(C(=O)Nc5ccc(F)cc5)CC4)cc3)ccnc2cc1N1CCC(OCCC(=O)N[C@H](C(=O)N2C[C@H](O)C[C@H]2C(=O)NCc2ccc(-c3scnc3C)cc2)C(C)(C)C)CC1` [TPD5412], the IC50 with MKN45 and in the test with SNU5 was 100 to 500 nM each time. The greatest degradation seen (Dmax) at DDR1 is 65 to 75%.
Turning to `COc1cc2c(Oc3ccc(NC(=O)C4(C(=O)Nc5ccc(F)cc5)CC4)cc3)ccnc2cc1NCCC(=O)N[C@H](C(=O)N1C[C@H](O)C[C@H]1C(=O)NCc1ccc(-c2scnc2C)cc1)C(C)(C)C` [TPD5415], the IC50 with MKN45 and with SNU5 was 100 to 500 nM each time. For the same compound, the Dmax at DDR1 lay in the range of 65 to 75%.
Regarding `COc1cc2c(Oc3ccc(NC(=O)C4(C(=O)Nc5ccc(F)cc5)CC4)cc3)ccnc2cc1NCC(=O)N[C@H](C(=O)N1C[C@H](O)C[C@H]1C(=O)NCc1ccc(-c2scnc2C)cc1)C(C)(C)C` [TPD5417], the figures for the half-inhibitory concentration (IC50) in the test with MKN45 and in the test on SNU5 were 500 to 1000 nM and 1000 to 3000 nM, respectively. The compound also gave a Dmax on DDR1 of 65 to 75%.
Taken in the same sequence, the figures for `COc1cc2c(Oc3ccc(NC(=O)C4(C(=O)Nc5ccc(F)cc5)CC4)cc3)ccnc2cc1N1CCC(N2CCC(C(=O)N[C@H](C(=O)N3C[C@H](O)C[C@H]3C(=O)NCc3ccc(-c4scnc4C)cc3)C(C)(C)C)CC2)CC1` [TPD5420] were 1000 to 3000 nM, 500 to 1000 nM and 65 to 75%.
Taken in the same sequence, the figures for `COc1cc2c(Oc3ccc(NC(=O)C4(C(=O)Nc5ccc(F)cc5)CC4)cc3)ccnc2cc1N1CCC(CN2CCC(C(=O)N3C[C@H](O)C[C@H]3C(=O)NCc3ccc(-c4scnc4C)cc3)CC2)CC1` [TPD5421] were 100 to 500 nM, 100 to 500 nM and 75 to 85%.
Taken in the same sequence, the figures for `COc1cc2c(Oc3ccc(NC(=O)C4(C(=O)Nc5ccc(F)cc5)CC4)cc3)ccnc2cc1N1CCC(NC(=O)C2(C(=O)N[C@H](C(=O)N3C[C@H](O)C[C@H]3C(=O)NCc3ccc(-c4scnc4C)cc3)C(C)(C)C)CC2)CC1` [TPD5424] were 1000 to 3000 nM, 500 to 1000 nM and 65 to 75%.
Take `COc1cc2c(Oc3ccc(NC(=O)C4(C(=O)Nc5ccc(F)cc5)CC4)cc3)ccnc2cc1N1CCC(CN2CC(C(=O)N3C[C@H](O)C[C@H]3C(=O)NCc3ccc(-c4scnc4C)cc3)C2)CC1` [TPD5430]: the half-inhibitory concentration (IC50) in the test with MKN45 and with SNU5 was 1000 to 3000 nM each time. For the same compound, at DDR1, the Dmax fell in the range of 65 to 75%.
